Experiments:
Caco-2 = assay: MTT screening assay, Caco-2; type: cell-based; conditions: Homo sapiens, 72 h incubation
Description: The ability of newly synthesized indole phytoalexins to suppress cell proliferation was screened in vitro on eight cancer cell lines including human colorectal carcinoma (Caco-2 and HCT116), human cervical cancer (HeLa), human breast adenocarcinoma (MCF-7, MDA-MB-231), human alveolar adenocarcinoma (A549) and human leukemic T cell lymphoma (Jurkat), and two non-cancer cell lines (MCF-10A, Cos-7).
The cell lines used for this study were Caco-2 (human colorectal adenocarcinoma cell line, American Type Culture Collection, Manassas, VA, USA (ATCC)), HCT116 (human colorectal carcinoma cells European Collection of Authenticated Cell Cultures, Salisbury, UK (ECACC)), HeLa (human cervical tumor cells, ECACC), MCF-7 (human breast tumor cells, ECACC), MDA-MB-231 (human breast tumor cells, ATCC), A549 (human lung carcinoma cells, ATCC), BLM (human melanoma lung metastases, a gift from prof. K. Smetana, Institute of Anatomy, Charles University in Prague), Jurkat (human leukemia cell line, ECACC), Cos-7 (immortalized monkey kidney fibroblasts, ATCC) and MCF-10A (human mammary epithelial cells, ATCC). Caco-2, MCF-7, BLM, Cos-7 and A549 cells were cultured in Dulbecco’s Modified Eagle’s Medium (DMEM) with high glucose and sodium pyruvate (GE Healthcare, Piscataway, NJ, USA); HCT116 lines, HeLa, MDA-MB-231 and Jurkat were cultured in RPMI-1640 medium; and MCF10A cells were cultured in high glucose DMEM/F12 (Dulbecco’s Modified Eagle’s Medium F12). The media were enriched with 10% fetal bovine serum (FBS) and a 1% solution of a mixture of antibiotics and antimycotics 1× HyClone™ (GE Healthcare, Chicago, IL, USA). DMEM/F12 medium was supplemented with epidermal growth factor (EGF) (20 ng/mL final), hydrocortisone (0.5 μg/mL final) and insulin (10 μg/mL final) (Sigma-Aldrich Chemie, Steinheim, Germany). The cells were placed in an incubator at 37 °C with humidified air containing 5% CO2.
The MTT assay is a colorimetric method used to quantify the metabolic activity of cells. MTT (3-(4,5-di-methylthiazol-2-yl)2,5-diphenyltetrazolium bromide) (Sigma-Aldrich Chemie, Steinheim, Germany) is reduced by oxidoreductases in the cytosol of cells to light-absorbing formazan, the presence of which can be measured spectrophotometrically and determines the half-maximal inhibitory concentration (IC50). A549 cells were seeded in […] culture plates at a density of 5 × 10^3 per well. […]
We also incubated the cells with chloroquine at concentrations of 5–20 µM, which was added 1 h before the addition of the test substance, and cisplatin at concentrations of 3–10 µM. […] After 24 h, the absorbance was measured at a wavelength of 540 nm using an automated Cytation™ 3 Cell Imaging Multi-Mode Reader (Biotek, Winooski, VT, USA). […]

Phospho-AMPKα = assay: Western blot, phospho-AMPK; type: cell-based, human; conditions: A549, 24, 48, 72 h
Description: ULK1/AMPK. ULK1 is a serine/threonine protein kinase. The ULK1 complex controls the formation of the phagophore, the initial autophagosomal precursor membrane structure. Upon induction of autophagy, the ULK1 complex translocates to autophagy initiation sites and regulates the recruitment of a second kinase complex, VPS34. ULK1 can be inhibited by phosphorylation by mammalian target of rapamycin complex 1 (mTORC1) or activated after AMP-activated protein kinase (AMPK) phosphorylation. Under conditions of nutrient deficiency, AMPK is activated, which directly activates ULK1. The kinase is phosphorylated, i.e., activated by an increased AMP/ATP ratio due to cellular and environmental stress. AMPK also inactivates mTORC1 and thus blocks its inhibitory action on autophagy activation.
A549 cells were seeded on Petri dishes (55 cm^2) at a density of 1 × 10^6 and allowed to culture in the medium. After 24 h, the test substance was added, and the cells were incubated for 24, 48 and 72 h. […] After lysis, the cells were sonicated, and the protein concentration in the samples was quantified using the Pierce® BCA Protein Assay Kit (Thermo Scientific, Rockford, IL, USA) and measured by an automated Cytation™ 3 Cell Imaging Multi-Mode Reader (Biotek) at a wavelength of 570 nm. […]

CC(C)(C)OC(=O)n1cc(CNC(=O)Nc2ccc(NC(=O)NCc3cn(C(=O)OC(C)(C)C)c4ccccc34)cc2)c2ccccc21 [Compound 49, N,N′-(1,4-phenylene)bis{N′-[1-(tert-butoxycarbonyl)indol-3-yl]methyl (urea)}]
IC50 (Caco-2): 8.6 ± 0.9 µM | phosphorylated form of AMPK (Phospho-AMPKα): significant increase
